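Growth conditions: 96-well plates. Treatment: test compound, 48 hours, 5 concentrations. Analysis: linear interpolation between bracketing concentrations; unreached endpoints set to highest concentration. Here, GI50 denotes the concentration required for 50% inhibition of growth. The concentration for full growth arrest is given as TGI.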
Tests used:
Assay in all cases: NCI anticancer screen, dose series, 48 h; in the data active means GI50 below about 0.43 µM; inactive means the rest
[1] = test system: KM12 colon
[2] = test system: NCI-H522 lung
[3] = test system: SK-MEL-28 melanoma
[4] = test system: OVCAR-4 ovarian
[5] = test system: NCI-H226 lung
[6] = test system: 786-0 renal
[7] = test system: SN12C renal
[8] = test system: IGROV1 ovarian
[9] = test system: HCT-15 colon
[10] = test system: SK-MEL-5 melanoma
[11] = test system: ACHN renal
[12] = test system: SF-268 CNS
[13] = test system: A549 NSCLC
[14] = test system: HT29 colon
[15] = test system: RXF 393 renal
[16] = test system: PC-3 prostate
[17] = test system: OVCAR-5 ovarian
[18] = test system: NCI/ADR-RES ovarian
[19] = test system: SF-295 CNS
[20] = test system: SNB-19 CNS
[21] = test system: UACC-62 melanoma
[22] = test system: SK-OV-3 ovarian
[23] = test system: OVCAR-8 ovarian
[24] = test system: MCF7 breast
[25] = test system: HCC-2998 colon
[26] = test system: SK-MEL-2 melanoma
[27] = test system: SNB-75 CNS
[28] = test system: CAKI-1 renal
[29] = test system: K-562 leukemia
[30] = test system: HL-60(TB) leukemia
[31] = test system: DU-145 prostate
[32] = test system: RPMI-8226 leukemia
[33] = test system: MDA-MB-231 breast
[34] = test system: EKVX NSCLC
[35] = test system: UACC-257 melanoma
[36] = test system: LOX IMVI melanoma
[37] = test system: MALME-3M melanoma
[38] = test system: BT-549 breast
[39] = test system: HOP-92 NSCLC
[40] = test system: OVCAR-3 ovarian
[41] = test system: HCT-116 colon
[42] = test system: SF-539 CNS
[43] = test system: SW-620 colon
[44] = test system: UO-31 renal
[45] = test system: CCRF-CEM leukemia
[46] = test system: HS 578T breast
[47] = test system: MOLT-4 leukemia
[48] = test system: TK-10 renal
[49] = test system: HOP-62 NSCLC
[50] = test system: M14 melanoma
[51] = test system: COLO 205 colon
[52] = test system: MDA-MB-468 breast
[53] = test system: MDA-MB-435
[54] = test system: SR leukemia
[55] = test system: A498 renal
[56] = test system: U251 CNS
[57] = test system: NCI-H460 lung
[58] = test system: NCI-H23 lung
[59] = test system: T-47D breast

Cn1cc(-c2nc(N)nnc2-c2c[nH]c3ccc(Br)cc23)c2cc(Br)cnc21
0.824 µM: TGI [30]
9.02 µM: TGI [23]
14.5 µM: TGI [7]
18.8 µM: TGI [8]
2.51 µM: TGI [40]
20.2 µM: TGI [4] | TGI [22]
16.1 µM: TGI [6]
13.3 µM: TGI [56]
38 µM: TGI [46]
0.762 µM: TGI [51]
11.4 µM: TGI [25] | TGI [39]
18.4 µM: TGI [43]
15.6 µM: TGI [17]
11.2 µM: TGI [57]
3.36 µM: TGI [41]
3.91 µM: TGI [10]
22 µM: TGI [12]
13.2 µM: TGI [11]
11.7 µM: TGI [33]
14.9 µM: TGI [58]
8.66 µM: TGI [5]
0.0619 µM: TGI [2]
1.03 µM: TGI [52]
1.04 µM: TGI [14]
23.5 µM: TGI [35]
7.08 µM: TGI [18]
17.8 µM: TGI [3]
2.91 µM: TGI [27]
inactive: GI50 [4] 0.978 µM | GI50 [5] 0.582 µM | GI50 [11] 0.748 µM | GI50 [12] 1.62 µM | GI50 [13] 0.455 µM | GI50 [18] 0.432 µM | GI50 [20] 0.454 µM | GI50 [22] 0.432 µM | GI50 [23] 0.45 µM | GI50 [33] 0.442 µM | GI50 [34] 0.881 µM | GI50 [35] 11 µM | GI50 [39] 1.27 µM | GI50 [48] 12.6 µM | GI50 [55] 0.662 µM
active: GI50 [1] 0.146 µM | GI50 [2] 0.0212 µM | GI50 [3] 0.324 µM | GI50 [6] 0.422 µM | GI50 [7] 0.423 µM | GI50 [8] 0.398 µM | GI50 [9] 0.177 µM | GI50 [10] 0.114 µM | GI50 [14] 0.269 µM | GI50 [15] 0.167 µM | GI50 [16] 0.13 µM | GI50 [17] 0.422 µM | GI50 [19] 0.075 µM | GI50 [21] 0.0473 µM | GI50 [24] 0.0583 µM | GI50 [25] 0.379 µM | GI50 [26] 0.194 µM | GI50 [27] 0.192 µM | GI50 [28] 0.184 µM | GI50 [29] 0.049 µM | GI50 [30] 0.144 µM | GI50 [31] 0.352 µM | GI50 [32] 0.422 µM | GI50 [36] 0.299 µM | GI50 [37] 0.135 µM | GI50 [38] 0.227 µM | GI50 [40] 0.0649 µM | GI50 [41] 0.141 µM | GI50 [42] 0.154 µM | GI50 [43] 0.217 µM | GI50 [44] 0.349 µM | GI50 [45] 0.279 µM | GI50 [46] 0.285 µM | GI50 [47] 0.341 µM | GI50 [49] 0.42 µM | GI50 [50] 0.148 µM | GI50 [51] 0.248 µM | GI50 [52] 0.069 µM | GI50 [53] 0.032 µM | GI50 [54] 0.043 µM | GI50 [56] 0.349 µM | GI50 [57] 0.349 µM | GI50 [58] 0.373 µM
15.9 µM: TGI [24]
0.12 µM: TGI [53]
50.4 µM: TGI [48]
20.3 µM: TGI [37] | TGI [47]
5.32 µM: TGI [55]
30.1 µM: TGI [16]
19.5 µM: TGI [49]
11.3 µM: TGI [1]
16.4 µM: TGI [21]
> 52.9 µM: TGI [54]
11 µM: TGI [9]
12.8 µM: TGI [19] | TGI [31]
14.8 µM: TGI [26]
18.2 µM: TGI [28]
> 100 µM: TGI [32] | TGI [45]
3.84 µM: TGI [15]
> 35.6 µM: TGI [29]
13.9 µM: TGI [50]
23.7 µM: TGI [34]
7.72 µM: TGI [38]
16.5 µM: TGI [20] | TGI [44]
15.8 µM: TGI [36]
29.1 µM: TGI [13]
0.532 µM: TGI [42]

Oc1ccc(Cl)c(Nc2nc(SCCN3CCOCC3)nc3c2cnn3CC(Cl)c2ccc(Br)cc2)c1 (configuration not stated)
84.6 µM: TGI [17]
54.7 µM: TGI [48]
6.28 µM: TGI [52]
24 µM: TGI [21]
19.1 µM: TGI [19]
active: GI50 [29] 0.378 µM
4.77 µM: TGI [15]
19.9 µM: TGI [37]
54.1 µM: TGI [13]
6.13 µM: TGI [27]
9.21 µM: TGI [39]
17.3 µM: TGI [33]
47.9 µM: TGI [58]
inactive: GI50 [1] 5.83 µM | GI50 [2] 2.92 µM | GI50 [3] 6.03 µM | GI50 [4] 4.91 µM | GI50 [5] 5.06 µM | GI50 [6] 15.4 µM | GI50 [7] 3.17 µM | GI50 [8] 2.82 µM | GI50 [9] 3.27 µM | GI50 [10] 3.95 µM | GI50 [11] 3.62 µM | GI50 [12] 4.34 µM | GI50 [13] 4.75 µM | GI50 [14] 6.22 µM | GI50 [15] 1.11 µM | GI50 [16] 3.08 µM | GI50 [17] 7.08 µM | GI50 [18] 3.37 µM | GI50 [19] 3.1 µM | GI50 [20] 8.16 µM | GI50 [21] 5.44 µM | GI50 [22] 17.1 µM | GI50 [23] 3.89 µM | GI50 [24] 2.93 µM | GI50 [25] 4.1 µM | GI50 [26] 10.1 µM | GI50 [27] 1.39 µM | GI50 [28] 6.63 µM | GI50 [30] 6.62 µM | GI50 [31] 6.33 µM | GI50 [32] 3.54 µM | GI50 [33] 3.77 µM | GI50 [34] 4.64 µM | GI50 [35] 13.7 µM | GI50 [36] 2.97 µM | GI50 [37] 3.7 µM | GI50 [38] 26.3 µM | GI50 [39] 2.57 µM | GI50 [40] 5.5 µM | GI50 [41] 3.83 µM | GI50 [42] 4.43 µM | GI50 [43] 11.3 µM | GI50 [59] 2.88 µM | GI50 [44] 2.04 µM | GI50 [45] 3.17 µM | GI50 [47] 3.53 µM | GI50 [48] 18.2 µM | GI50 [49] 6.24 µM | GI50 [50] 4.49 µM | GI50 [51] 18.6 µM | GI50 [52] 2.2 µM | GI50 [53] 4.64 µM | GI50 [54] 12.8 µM | GI50 [55] 12.1 µM | GI50 [56] 5.75 µM | GI50 [57] 4.12 µM | GI50 [58] 8.67 µM
10.9 µM: TGI [36]
> 100 µM: TGI [1] | TGI [2] | TGI [3] | TGI [4] | TGI [5] | TGI [7] | TGI [9] | TGI [11] | TGI [12] | TGI [16] | TGI [18] | TGI [20] | TGI [22] | TGI [23] | TGI [24] | TGI [28] | TGI [29] | TGI [30] | TGI [31] | TGI [32] | TGI [34] | TGI [35] | TGI [38] | TGI [40] | TGI [41] | TGI [42] | TGI [43] | TGI [59] | TGI [44] | TGI [45] | TGI [47] | TGI [49] | TGI [50] | TGI [53] | TGI [54] | TGI [55] | TGI [56] | TGI [57]
15.2 µM: TGI [10]
93.3 µM: TGI [6]
24.5 µM: TGI [14]
25.4 µM: TGI [25]
42.3 µM: TGI [51]
10.3 µM: TGI [8]
36.9 µM: TGI [26]
